# Assay results published in the supplement of paper PMC10307832.
# Legend:
# Assay in all cases: relative viability (nuclei count vs DMSO), 5 days (fraction); higher = more cells survive
# Tivantinib + Alpelisib = compound: O=C1NC(=O)[C@@H](c2cn3c4c(cccc24)CCC3)[C@@H]1c1c[nH]c2ccccc12 [Tivantinib] + Cc1nc(NC(=O)N2CCC[C@H]2C(N)=O)sc1-c1ccnc(C(C)(C)C(F)(F)F)c1 [Alpelisib] (partner 2 µM)
# How it was run: (§1)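 Medians of duplicate plates are given as relative viability. That measure is the nuclei count in treated wells divided by the count in vehicle wells. Counts were taken on 4× images of lung cancer cell lines in 1536-well plates, 5 days after pin-tool dosing the day after seeding with one drug alone or a fixed anchor-drug dose plus five library-drug doses (not always all listed) in √10 steps.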
# Crenolanib + Palbociclib = compound: CC1(COc2ccc3c(c2)ncn3-c2ccc3cccc(N4CCC(N)CC4)c3n2)COC1 [Crenolanib] + CC(=O)c1c(C)c2cnc(Nc3ccc(N4CCNCC4)cn3)nc2n(C2CCCC2)c1=O [Palbociclib] (partner 0.5 µM)
# How it was run: as §1
# Tivantinib + Decitabine = compound: O=C1NC(=O)[C@@H](c2cn3c4c(cccc24)CCC3)[C@@H]1c1c[nH]c2ccccc12 [Tivantinib] + Nc1ncn([C@H]2C[C@H](O)[C@@H](CO)O2)c(=O)n1 [Decitabine] (partner 2 µM)
# How it was run: as §1
# Crenolanib + Pemetrexed = compound: CC1(COc2ccc3c(c2)ncn3-c2ccc3cccc(N4CCC(N)CC4)c3n2)COC1 [Crenolanib] + Nc1nc2[nH]cc(CCc3ccc(C(=O)N[C@@H](CCC(=O)O)C(=O)O)cc3)c2c(=O)[nH]1 [Pemetrexed] (partner 0.2 µM)
# How it was run: as §1
Cell Line,relative viability (Tivantinib + Alpelisib; first compound 0.01 µM),relative viability (Tivantinib + Alpelisib; first compound 0.03162 µM),relative viability (Tivantinib + Alpelisib; first compound 0.1 µM),relative viability (Tivantinib + Alpelisib; first compound 0.3162 µM),relative viability (Crenolanib + Palbociclib; first compound 0.01 µM),relative viability (Crenolanib + Palbociclib; first compound 0.03162 µM),relative viability (Crenolanib + Palbociclib; first compound 0.1 µM),relative viability (Crenolanib + Palbociclib; first compound 0.3162 µM),relative viability (Crenolanib + Palbociclib; first compound 1 µM),relative viability (Tivantinib + Decitabine; first compound 0.01 µM),relative viability (Tivantinib + Decitabine; first compound 0.03162 µM),relative viability (Tivantinib + Decitabine; first compound 0.1 µM),relative viability (Tivantinib + Decitabine; first compound 0.3162 µM),relative viability (Crenolanib + Pemetrexed; first compound 0.01 µM),relative viability (Crenolanib + Pemetrexed; first compound 0.03162 µM),relative viability (Crenolanib + Pemetrexed; first compound 0.1 µM),relative viability (Crenolanib + Pemetrexed; first compound 0.3162 µM),relative viability (Crenolanib + Pemetrexed; first compound 1 µM)
NCI-H520,0.921,0.991,0.815,0.925,0.252,0.214,0.289,0.267,0.309,0.462,0.454,0.46,0.436,0.701,0.792,0.628,0.684,0.702
HCC-366,0.432,0.35,0.421,0.419,0.458,0.381,0.416,0.46,0.434,0.349,0.289,0.324,0.301,0.179,0.161,0.171,0.181,0.157
LCLC-97TM1,0.237,0.215,0.2,0.198,0.244,0.183,0.268,0.277,0.232,0.232,0.226,0.226,0.211,0.192,0.188,0.182,0.197,0.184
NCI-H460,0.508,0.373,0.447,0.473,0.165,0.163,0.0988,0.15,0.145,0.496,0.499,0.427,0.458,0.063,0.067,0.075,0.0642,0.0669
H3255,0.659,0.679,0.75,,0.303,0.309,0.325,0.301,0.315,,0.53,0.591,0.27,0.597,0.563,0.544,0.553,0.589
